{"source": "ChEMBL document CHEMBL4251625", "about": "“Efficacy of 2-hydroxy-3-phenylsulfanylmethyl-[1,4]-naphthoquinone derivatives against different Trypanosoma cruzi discrete type units: Identification of a promising hit compound” (Eur J Med Chem, 2018)", "key": {"[1]": {"assay": "Cytotoxicity activity against Swiss Webster mouse primary hepatocytes assessed as reduction in cell viability after 72 hrs by cell-titer-glo assay", "assay_type": "cell-based, Hepatocyte"}, "[2]": {"assay": "Therapeutic index, ratio of CC50 for African green monkey Vero cells to IC50 for Trypanosoma cruzi Y trypomastigotes infected in monkey LLC-MK2 cells", "assay_type": "toxicity, cell-based", "conditions": "read-out: Ratio CC50/IC50"}, "[3]": {"assay": "Therapeutic index, ratio of CC50 for Swiss Webster mouse cardiomyocytes to IC50 for Trypanosoma cruzi Y intracellular amastigotes infected in Swiss Webster mouse cardiomyocytes", "assay_type": "toxicity, cell-based", "conditions": "read-out: Ratio CC50/IC50"}, "[4]": {"assay": "Therapeutic index, ratio of CC50 for African green monkey Vero cells to IC50 for Trypanosoma cruzi Dm28c intracellular amastigotes infected in African green monkey Vero cells", "assay_type": "toxicity, cell-based", "conditions": "read-out: Ratio CC50/IC50"}, "[5]": {"tested_on": "Trypanosoma cruzi", "assay": "Trypanocidal activity against Trypanosoma cruzi CL trypomastigotes infected in monkey LLC-MK2 cells after 24 hrs by luminescent assay", "assay_type": "functional, organism-based", "conditions": "CL Brener"}, "[6]": {"tested_on": "Trypanosoma cruzi", "assay": "Trypanocidal activity against infected Swiss Webster mouse derived bloodstream form of Trypanosoma cruzi Y after 24 hrs by cell-titer-glo assay", "assay_type": "functional, organism-based"}, "[7]": {"tested_on": "Trypanosoma cruzi", "assay": "Trypanocidal activity against Trypanosoma cruzi Dm28c intracellular amastigotes infected in African green monkey Vero cells after 72 hrs", "assay_type": "functional, organism-based"}, "[8]": {"assay": "Cytotoxicity activity against African green monkey Vero cells assessed as reduction in cell viability after 72 hrs by cell-titer-glo assay", "assay_type": "cell-based", "conditions": "chlorocebus sabaeus"}, "[9]": {"assay": "Cytotoxicity against Swiss Webster mouse cardiomyocytes after 72 hrs", "parameters": "species or system Cardiac Muscle Cell"}, "[10]": {"assay": "Therapeutic index, ratio of CC50 for African green monkey Vero cells to IC50 for infected Swiss Webster mouse derived bloodstream form of Trypanosoma cruzi Y", "assay_type": "toxicity", "conditions": "read-out: Ratio CC50/IC50"}, "[11]": {"tested_on": "Trypanosoma cruzi", "assay": "Trypanocidal activity against Trypanosoma cruzi Y trypomastigotes infected in monkey LLC-MK2 cells after 24 hrs by cell-titer-glo assay", "assay_type": "functional, organism-based", "conditions": "for IC50: LLC-MK2, 24 h; for IC90: LLC-MK2, in Primates, 24 h"}, "[12]": {"tested_on": "Trypanosoma cruzi", "assay": "Trypanocidal activity against Trypanosoma cruzi Dm28c trypomastigotes infected in monkey LLC-MK2 cells after 24 hrs by luminescent assay", "assay_type": "functional, organism-based"}, "[13]": {"tested_on": "Trypanosoma cruzi", "assay": "Trypanocidal activity against Trypanosoma cruzi Y intracellular amastigotes infected in Swiss Webster mouse cardiomyocytes after 72 hrs", "assay_type": "functional, organism-based"}, "[14]": {"tested_on": "Trypanosoma cruzi", "assay": "Trypanocidal activity against Trypanosoma cruzi Brazil trypomastigotes infected in monkey LLC-MK2 cells after 24 hrs by luminescent assay", "assay_type": "functional, organism-based"}}, "data": [{"smiles": "O=C(Cn1ccnc1[N+](=O)[O-])NCc1ccccc1", "note": "[BENZNIDAZOLE]", "values": [{"measurement": "CC50 at 72 h", "setting": "[1]", "result": "> 500", "unit": "µM"}, {"measurement": "selectivity ratio", "setting": "[2]", "result": 12.2}, {"measurement": "selectivity ratio", "setting": "[3]", "result": "> 455"}, {"measurement": "selectivity ratio", "setting": "[4]", "result": 83.2}, {"measurement": "IC50", "setting": "[5]; LLC-MK2, 24 h", "result": 69.3, "unit": "µM"}, {"measurement": "IC90", "setting": "[5]; LLC-MK2, in Primates, 24 h", "result": "> 100", "unit": "µM"}, {"measurement": "IC50", "setting": "[6]", "result": 18.1, "unit": "µM"}, {"measurement": "IC90", "setting": "[6]", "result": "> 100", "unit": "µM"}, {"measurement": "IC50", "setting": "[7]", "result": 4.39, "unit": "µM"}, {"measurement": "IC90", "setting": "[7]", "result": 24.9, "unit": "µM"}, {"measurement": "CC50 at 72 h", "setting": "[8]", "result": 366, "unit": "µM"}, {"measurement": "CC50 at 72 h", "setting": "[9]", "result": "> 500", "unit": "µM"}, {"measurement": "selectivity ratio", "setting": "[10]", "result": 20.2}, {"measurement": "IC50", "setting": "[11]", "result": 29.8, "unit": "µM"}, {"measurement": "IC90", "setting": "[11]", "result": 68.5, "unit": "µM"}, {"measurement": "IC50", "setting": "[12]; LLC-MK2, 24 h", "result": 24.7, "unit": "µM"}, {"measurement": "IC90", "setting": "[12]; LLC-MK2, in Primates, 24 h", "result": 92.3, "unit": "µM"}, {"measurement": "IC50", "setting": "[13]", "result": 1.1, "unit": "µM"}, {"measurement": "IC50", "setting": "[14]; LLC-MK2, 24 h", "result": 93.3, "unit": "µM"}, {"measurement": "IC90", "setting": "[14]; LLC-MK2, in Primates, 24 h", "result": "> 100", "unit": "µM"}]}, {"smiles": "O=C1C=C(O)C(=O)c2ccccc21", "note": "[LAWSONE]", "values": [{"measurement": "CC50 at 72 h", "setting": "[1]", "result": "> 500", "unit": "µM"}, {"measurement": "selectivity ratio", "setting": "[4]", "result": 2.39}, {"measurement": "IC50", "setting": "[6]", "result": "> 100", "unit": "µM"}, {"measurement": "IC90", "setting": "[6]", "result": "> 100", "unit": "µM"}, {"measurement": "IC50", "setting": "[7]", "result": 89, "unit": "µM"}, {"measurement": "IC90", "setting": "[7]", "result": "> 100", "unit": "µM"}, {"measurement": "CC50 at 72 h", "setting": "[8]", "result": 214, "unit": "µM"}, {"measurement": "IC50", "setting": "[11]", "result": "> 100", "unit": "µM"}, {"measurement": "IC90", "setting": "[11]", "result": "> 100", "unit": "µM"}]}]}
